The record followed here is patent US8198273B2, “Compounds and methods for kinase modulation, and indications therefor” (Plexxikon Inc., priority 2009, dated 2012).

Molecules are shown by their SMILES. Bounds are passed on as bounds.

One data set addresses B-Raf (Homo sapiens, UniProt P15056). In words: B-Raf biochemical kinase inhibition (AlphaScreen, biotin-MEK1 substrate). Particulars: 100 μM ATP. In outline: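 IC50 derived from AlphaScreen signal plotted against compound concentration. Final ATP 100 μM; 3 h incubation at room temperature. Eight-point 3-fold dilution series prepared from a 0.1 mM DMSO stock.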
The test system of data set [1] is COLO205 colon adenocarcinoma cells (B-Raf V600E). Briefly: COLO205 cell growth inhibition (ATPlite). The conditions noted are these: Homo sapiens, COLO 205, 72 h; COLO205, 3 days incubation. Type of data set: cell-based. In outline: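 Cells plated overnight, then exposed 3 days at 37° C to 8-point 1:3 compound dilutions topping at 10 μM final. Viability read as ATPlite luminescence, proportional to cell number; IC50 from luminescence versus concentration.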
For orientation: Cellular ATP, detected with luciferase, serves as a proxy for viable cell number.

In the next data set the target is T1, CYP1A2 (Homo sapiens, UniProt P05177).
T1 sequence (P05177 1-516): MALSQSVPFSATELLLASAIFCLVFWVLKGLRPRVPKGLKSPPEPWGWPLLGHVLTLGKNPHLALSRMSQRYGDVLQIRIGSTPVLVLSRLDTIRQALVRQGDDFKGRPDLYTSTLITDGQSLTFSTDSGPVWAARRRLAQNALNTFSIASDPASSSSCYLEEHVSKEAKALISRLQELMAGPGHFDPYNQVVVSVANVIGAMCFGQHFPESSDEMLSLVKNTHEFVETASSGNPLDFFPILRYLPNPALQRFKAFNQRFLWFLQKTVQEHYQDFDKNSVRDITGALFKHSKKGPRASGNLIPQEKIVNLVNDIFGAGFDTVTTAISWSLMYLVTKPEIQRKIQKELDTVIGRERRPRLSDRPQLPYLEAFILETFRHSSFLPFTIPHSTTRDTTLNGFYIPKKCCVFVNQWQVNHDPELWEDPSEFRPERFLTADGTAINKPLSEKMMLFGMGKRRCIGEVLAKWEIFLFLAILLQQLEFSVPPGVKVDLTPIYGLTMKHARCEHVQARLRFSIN
In words: CYP1A2 inhibition (fluorescent substrate). The data set is classed as in vitro ADME. The conditions noted are these: CYP1A2, CEC substrate; read-out: Cyp IC50 1A2. In outline:
(§1)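 IC50 values come from plotting product fluorescence against compound concentration; inhibition lowers formation of the fluorescent metabolite. Ten-point twofold dilutions in co-factor mix were held 10 minutes at 37 °C before the enzyme reaction, also run at 37 °C.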

A further data set has as its target CYP2D6 (Homo sapiens, UniProt P10635). In words: CYP2D6 inhibition (fluorescent substrate). Type of data set: in vitro ADME. The conditions noted are these: CYP2D6, AMMC substrate; read-out: Cyp IC50 2D6. In outline:
as §1

Chain of B-Raf (P15056 whole entry): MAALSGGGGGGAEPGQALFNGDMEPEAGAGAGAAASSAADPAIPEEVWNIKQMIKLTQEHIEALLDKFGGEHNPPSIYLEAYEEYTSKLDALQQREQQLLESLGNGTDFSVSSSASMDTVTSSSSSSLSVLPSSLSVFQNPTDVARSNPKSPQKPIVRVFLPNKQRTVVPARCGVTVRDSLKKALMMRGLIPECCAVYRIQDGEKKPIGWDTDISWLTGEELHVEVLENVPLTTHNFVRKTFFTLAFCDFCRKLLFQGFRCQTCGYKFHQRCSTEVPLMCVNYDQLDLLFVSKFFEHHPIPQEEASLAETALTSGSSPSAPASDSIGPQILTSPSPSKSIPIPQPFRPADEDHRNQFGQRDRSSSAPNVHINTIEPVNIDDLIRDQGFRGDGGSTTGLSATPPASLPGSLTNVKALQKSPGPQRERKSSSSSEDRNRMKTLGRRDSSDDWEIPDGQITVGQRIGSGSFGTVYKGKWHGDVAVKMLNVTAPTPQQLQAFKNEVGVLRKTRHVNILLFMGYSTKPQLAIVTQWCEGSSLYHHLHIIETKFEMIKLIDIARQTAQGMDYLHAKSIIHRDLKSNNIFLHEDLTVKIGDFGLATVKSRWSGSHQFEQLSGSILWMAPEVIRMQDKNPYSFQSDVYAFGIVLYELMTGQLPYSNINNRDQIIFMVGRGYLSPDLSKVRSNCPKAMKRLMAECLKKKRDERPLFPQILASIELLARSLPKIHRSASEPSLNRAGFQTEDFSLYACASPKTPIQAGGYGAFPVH
Chain of CYP2D6 (P10635 whole entry): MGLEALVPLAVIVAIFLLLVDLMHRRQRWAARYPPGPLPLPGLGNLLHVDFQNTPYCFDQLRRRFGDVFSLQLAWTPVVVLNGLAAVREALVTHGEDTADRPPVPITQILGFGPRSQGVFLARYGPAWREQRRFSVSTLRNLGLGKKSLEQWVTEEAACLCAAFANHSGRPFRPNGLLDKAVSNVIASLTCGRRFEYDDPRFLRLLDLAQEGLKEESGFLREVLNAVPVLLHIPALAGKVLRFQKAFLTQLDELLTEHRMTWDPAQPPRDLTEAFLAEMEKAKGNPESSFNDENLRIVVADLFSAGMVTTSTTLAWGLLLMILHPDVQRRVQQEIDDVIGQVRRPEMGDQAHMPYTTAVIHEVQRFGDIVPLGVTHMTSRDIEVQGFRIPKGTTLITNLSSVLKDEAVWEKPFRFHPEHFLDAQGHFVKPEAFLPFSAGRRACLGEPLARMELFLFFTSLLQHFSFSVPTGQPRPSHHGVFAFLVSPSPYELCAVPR

The term IC50 denotes the concentration that inhibits the measured activity by half. Consider `CCCS(=O)(=O)Nc1ccc(F)c(C(=O)c2c[nH]c3ncc(-c4ccc(OCCCN(C)C)nc4)cc23)c1F` [P-2178, Propane-1-sulfonic acid (3-{5-[6-(3-dimethylamino-propoxy)-pyridin-3-yl]-1H-pyrrolo[2,3-b]pyridine-3-carbonyl}-2,4-difluoro-phenyl)-amide], for which the IC50 is below 0.01 µM on B-Raf, below 0.1 µM in data set [1], above 10 µM on CYP1A2 and above 10 µM at CYP2D6.

`CCCS(=O)(=O)Nc1ccc(F)c(C(=O)c2c[nH]c3ncc(-c4ccc(S(C)(=O)=O)cc4)cc23)c1F` [P-2183, Propane-1-sulfonic acid {2,4-difluoro-3-[5-(4-methanesulfonyl-phenyl)-1H-pyrrolo[2,3-b]pyridine-3-carbonyl]-phenyl}-amide]: the IC50 against B-Raf was below 0.01 µM; in data set [1], below 0.1 µM; at CYP1A2, above 10 µM; on CYP2D6, above 10 µM.

Turning to `CCCS(=O)(=O)Nc1ccc(F)c(C(=O)c2c[nH]c3ncc(-c4ccc(S(=O)(=O)N(C)C)cc4)cc23)c1F` [P-2185, 4-{3-[2,6-Difluoro-3-(propane-1-sulfonylamino)-benzoyl]-1H-pyrrolo[2,3-b]pyridin-5-yl}-N,N-dimethyl-benzenesulfonamide], the IC50 is below 0.01 µM against B-Raf, below 0.1 µM in data set [1], above 10 µM at CYP1A2 and above 10 µM on CYP2D6.

On to `CCCS(=O)(=O)Nc1ccc(F)c(C(=O)c2c[nH]c3ncc(-c4ccc(SC)nc4)cc23)c1F` [P-2187, Propane-1-sulfonic acid {2,4-difluoro-3-[5-(6-methylsulfanyl-pyridin-3-yl)-1H-pyrrolo[2,3-b]pyridine-3-carbonyl]-phenyl}-amide], for which the half-maximal inhibitory concentration (IC50) is below 0.01 µM against B-Raf, below 1 µM in data set [1], above 10 µM on CYP1A2 and above 10 µM at CYP2D6.

For the compound `CCCS(=O)(=O)Nc1ccc(F)c(C(=O)c2c[nH]c3ncc(-c4cnc(SC)nc4)cc23)c1F` [P-2189, Propane-1-sulfonic acid {2,4-difluoro-3-[5-(2-methylsulfanyl-pyrimidin-5-yl)-1H-pyrrolo[2,3-b]pyridine-3-carbonyl]-phenyl}-amide], the IC50 is below 0.01 µM at B-Raf, below 1 µM in data set [1], above 10 µM on CYP1A2 and above 10 µM on CYP2D6.

With `CCCS(=O)(=O)Nc1ccc(F)c(C(=O)c2c[nH]c3ncc(-c4cnn(Cc5ccccc5)c4)cc23)c1F` [P-2190, Propane-1-sulfonic acid {3-[5-(1-benzyl-1H-pyrazol-4-yl)-1H-pyrrolo[2,3-b]pyridine-3-carbonyl]-2,4-difluoro-phenyl}-amide], the IC50 on B-Raf is below 0.01 µM; in data set [1] it was below 1 µM; at CYP1A2, above 10 µM; at CYP2D6, above 10 µM.

Consider `CCCS(=O)(=O)Nc1ccc(F)c(C(=O)c2c[nH]c3ncc(-c4ccc(NC(C)=O)nc4)cc23)c1F` [P-2193, N-(5-{3-[2,6-Difluoro-3-(propane-1-sulfonylamino)-benzoyl]-1H-pyrrolo[2,3-b]pyridin-5-yl}-pyridin-2-yl)-acetamide], for which the IC50 on B-Raf is below 0.01 µM; in data set [1], below 1 µM; at CYP1A2 it was above 10 µM; at CYP2D6, above 10 µM.

Consider `CCCS(=O)(=O)Nc1ccc(F)c(C(=O)c2c[nH]c3ncc(-c4cnc(N(C)C)nc4)cc23)c1F` [P-2196, Propane-1-sulfonic acid {3-[5-(2-dimethylamino-pyrimidin-5-yl)-1H-pyrrolo[2,3-b]pyridine-3-carbonyl]-2,4-difluoro-phenyl}-amide], for which the IC50 at B-Raf was below 0.01 µM; in data set [1] it was below 1 µM; at CYP1A2, above 10 µM; on CYP2D6 it was above 10 µM.

Regarding `CCCS(=O)(=O)Nc1ccc(F)c(C(=O)c2c[nH]c3ncc(-c4cnc(C)nc4)cc23)c1F` [P-2211, Propane-1-sulfonic acid {2,4-difluoro-3-[5-(2-methyl-pyrimidin-5-yl)-1H-pyrrolo[2,3-b]pyridine-3-carbonyl]-phenyl}-amide], the IC50 is below 0.01 µM at B-Raf, below 1 µM in data set [1], above 10 µM on CYP1A2 and above 10 µM on CYP2D6.

For `CCCS(=O)(=O)Nc1ccc(F)c(C(=O)c2c[nH]c3ncc(-c4ccc(C)nc4)cc23)c1F` [P-2213, Propane-1-sulfonic acid {2,4-difluoro-3-[5-(6-methyl-pyridin-3-yl)-1H-pyrrolo[2,3-b]pyridine-3-carbonyl]-phenyl}-amide], the IC50 is below 0.01 µM against B-Raf, below 1 µM in data set [1], above 10 µM on CYP1A2 and above 10 µM at CYP2D6.

With `CCCS(=O)(=O)Nc1ccc(F)c(C(=O)c2c[nH]c3ncc(-c4ccc(N)nc4)cc23)c1F` [P-2214, Propane-1-sulfonic acid {3-[5-(6-amino-pyridin-3-yl)-1H-pyrrolo[2,3-b]pyridine-3-carbonyl]-2,4-difluoro-phenyl}-amide], the IC50 against B-Raf is below 0.01 µM; in data set [1] it was below 1 µM; on CYP1A2, above 10 µM; at CYP2D6 it was above 10 µM.

Regarding `CCCS(=O)(=O)Nc1ccc(F)c(C(=O)c2c[nH]c3ncc(-c4ccc(S(=O)(=O)CC)cc4)cc23)c1F` [P-2218, Propane-1-sulfonic acid {3-[5-(4-ethanesulfonyl-phenyl)-1H-pyrrolo[2,3-b]pyridine-3-carbonyl]-2,4-difluoro-phenyl}-amide], the IC50 on B-Raf was below 0.1 µM; in data set [1], below 0.1 µM; at CYP1A2 it was above 10 µM; on CYP2D6, above 10 µM.

For `CCCS(=O)(=O)Nc1ccc(F)c(C(=O)c2c[nH]c3ncc(-c4cnc(N5CCCC5)nc4)cc23)c1F` [P-2219, Propane-1-sulfonic acid {2,4-difluoro-3-[5-(2-pyrrolidin-1-yl-pyrimidin-5-yl)-1H-pyrrolo[2,3-b]pyridine-3-carbonyl]-phenyl}-amide], the IC50 was below 0.1 µM on B-Raf, below 0.1 µM in data set [1], above 10 µM on CYP1A2 and above 10 µM on CYP2D6.

For `CCCS(=O)(=O)Nc1ccc(F)c(C(=O)c2c[nH]c3ncc(-c4ccc(C#CCN(CC)CC)nc4)cc23)c1F` [P-2222, Propane-1-sulfonic acid (3-{5-[6-(3-diethylamino-prop-1-ynyl)-pyridin-3-yl]-1H-pyrrolo[2,3-b]pyridine-3-carbonyl}-2,4-difluoro-phenyl)-amide], the IC50 on B-Raf was below 0.01 µM; in data set [1], below 0.1 µM; on CYP1A2, above 10 µM; at CYP2D6, 5 to 10 µM.

As to `CCCc1ccc(-c2cnc3[nH]cc(C(=O)c4c(F)ccc(NS(=O)(=O)CCC)c4F)c3c2)cn1` [P-2224, Propane-1-sulfonic acid {2,4-difluoro-3-[5-(6-propyl-pyridin-3-yl)-1H-pyrrolo[2,3-b]pyridine-3-carbonyl]-phenyl}-amide], the IC50 is below 0.01 µM at B-Raf, below 1 µM in data set [1], above 10 µM at CYP1A2 and above 10 µM on CYP2D6.

For the compound `CCCS(=O)(=O)Nc1ccc(F)c(C(=O)c2c[nH]c3ncc(-c4ccc(CCCOC)nc4)cc23)c1F` [P-2226, Propane-1-sulfonic acid (2,4-difluoro-3-{5-[6-(3-methoxy-propyl)-pyridin-3-yl]-1H-pyrrolo[2,3-b]pyridine-3-carbonyl}-phenyl)-amide], the IC50 is below 0.01 µM against B-Raf, below 0.1 µM in data set [1], above 10 µM at CYP1A2 and above 10 µM on CYP2D6.

In the case of `CCCS(=O)(=O)Nc1ccc(F)c(C(=O)c2c[nH]c3ncc(-c4ccc(N5CCCC5)nc4)cc23)c1F` [P-2231, Propane-1-sulfonic acid {2,4-difluoro-3-[5-(6-pyrrolidin-1-yl-pyridin-3-yl)-1H-pyrrolo[2,3-b]pyridine-3-carbonyl]-phenyl}-amide], the IC50 was below 0.01 µM against B-Raf, below 1 µM in data set [1], below 5 µM at CYP1A2 and above 10 µM at CYP2D6.

`CCCS(=O)(=O)Nc1ccc(F)c(C(=O)c2c[nH]c3ncc(-c4ccc(OCCN5CCOCC5)nc4)cc23)c1F` [P-2232, Propane-1-sulfonic acid (2,4-difluoro-3-{5-[6-(2-morpholin-4-yl-ethoxy)-pyridin-3-yl]-1H-pyrrolo[2,3-b]pyridine-3-carbonyl}-phenyl)-amide]: the IC50 is below 0.01 µM against B-Raf, below 0.1 µM in data set [1], above 10 µM on CYP1A2 and above 10 µM at CYP2D6.
